Experiments:
[1] = tested on: hetero antikidney serum nephritis; test: Therapy for hetero antikidney serum nephritis; format: in vivo, Wister type male rats; conditions: 1000 mg/kg/day oral
Description: Antikidney serum (rabbit) prepared in accordance with the Heymann method was intravenously injected into tail vein at a dose of 0.5 ml per 100 g of rat at one time per day.
In Table 3, the symbols for tissue observation mean the following conditions of tissues.
A: proliferation of polymorphs of glomeruli
C: thickning of the basement membrane of the glomerular capillaries
D: obliteration of the glomerular capillary loops
F: exudate in Bowman's subcapsule space
G: thickning of Bowman's capsule
H: crescent formation of glomeruli
I: proteinaeous fluid in the tubli
J: swelling of tublar epithelium
K: proliferation of interstitial tissue cells
In Table 4, the degree of lesions were rated as follows:
0: no lesion of tissue is found;
0.5: slight lesion of tissue is found;
1: clear sporadic or slight lesion of tissue is found;
3: inflamed or clear lesion of tissue is found.
The average of ratings for 5 rats in each group is shown.
The level of significance was considered as the same with those of Table 1.

[2] = tested on: patients having excessive urinary protein; conditions: 150 to 1800 mg/day, with or without additional medicines
Description: When used in combination, the additional medicines were dosed in the amount usual for each of such additional medicines.
The amount of urine protein was measured for the clinical tests. The elimination or remarkable degree of reduction of urine protein was considered to be effective.
The non-steroid anti-inflammatory agents such as Ibuprofen, Indomethacin, Azapropazone, and steroids such as Predonizolone and antibiotics such as Cephalexin, methyl chlorophenyl iso-oxazolyl penicillin were used as the additional medicines.

mouse = test: Toxicity test (LD50); format: in vivo, ddY type mice; conditions: mice, oral and intraperitoneal
Description: The test was carried out by the oral dose and the intraperitoneal injection of each solution in 10 ddY type male mice and 10 ddY femal mice. The results after 72 hours from the administration were observed. Probit analysis was used for statistical treatment of mortality.

Aminonucleoside nephrose = test: Therapy for Aminonucleoside nephrose (urine and blood biochemical observations); format: in vivo, SD type male rats; conditions: 1000 mg/kg/day oral, 10 days
Description: SD type male rats (weight about 100 g) were fed in each individual room of a metabolism cage under the free water and feed supply.
The rats were classified as the normal group for eight rats, the renal disease group for eight rats and the therapy group for eight rats.
0.3% Aminoucleoside aqueous solution (hereinafter referring to as AN) was administrated by intramuscular injection at a dose of 0.3 ml per 100 g of the rat.
The administration was continued from the 1st day to the 14th day at one time per day.
The data in Tables are average value for eight rats in each group.
The difference between the renal disease group and the therapy group was significant. The symbol * means the existence of significant difference in 5% of the level of significance and the symbol (*) means the existence of significant difference in 5 to 1% of the level of significance. The symbol -- means non-significant difference.

[3] = average lesion rating 0-3 (3 inflamed or clear), normal 0, renal disease group 1.1, significance *
[4] = average lesion rating 0-3 (3 inflamed or clear), normal 0, renal disease group 1.7, significance *

## C[S+](C)CCC(N)C(=O)O (stereo not shown) [Methyl methionine sulfonium chloride]
[1]; 9 days, normal 6.3, renal disease group 121, non-significant
  Urine urea: 104 mg/day
[1]; 9 days, normal 23, renal disease group 25, non-significant
  Urea nitrogen in blood: 24 mg/dL
[1]; average lesion rating 0-3 (3 inflamed or clear), normal 0, renal disease group 0, non-significant
  Observation of tissue F: exudate in Bowman's subcapsule space: 0
[1]; average lesion rating 0-3 (3 inflamed or clear), normal 0, renal disease group 0.2, non-significant
  Observation of tissue K: proliferation of interstitial tissue cells: 0.3
[1]; [3]
  Observation of tissue B: thrombus formation: 0.1
  Observation of tissue G: thickning of Bowman's capsule: 0
  Observation of tissue H: crescent formation of glomeruli: 0
[1]; [4]
  Observation of tissue C: thickning of the basement membrane of the glomerular capillaries: 0.4
  Observation of tissue D: obliteration of the glomerular capillary loops: 0.3
[1]; average lesion rating 0-3 (3 inflamed or clear), normal 0, renal disease group 2.2, significance *
  Observation of tissue E: anemia: 0.1
[1]; average lesion rating 0-3 (3 inflamed or clear), normal 0.5, renal disease group 1.6, non-significant
  Observation of tissue J: swelling of tublar epithelium: 1.3
[1]; average lesion rating 0-3 (3 inflamed or clear), normal 0.6, renal disease group 1.8, significance (*)
  Observation of tissue I: proteinaeous fluid in the tubli: 0.8
[1]; average lesion rating (0 none, 0.5 slight, 1 clear sporadic or slight, 3 inflamed or clear), normal 0, renal disease group 1.4, significance (*)
  Observation of tissue A: proliferation of polymorphs of glomeruli: 0.5
[2]
  effective cases (elimination or remarkable reduction of urine protein): 32 cases among 45 patients
mouse
  toxicity: low toxicity
Aminonucleoside nephrose; normal 0.1, renal disease group 2.4, significance *
  Urine albumin: 1.6 g/dL
Aminonucleoside nephrose; normal 0.6, renal disease group 5.2, significance *
  Urine protein: 4.0 g/dL
Aminonucleoside nephrose; normal 2.60, renal disease group 0.49, significance *
  Serum albumin: 1.25 g/dL
Aminonucleoside nephrose; normal 5.1, renal disease group 5.4, non-significant
  Serum K^+: 5.6 m Eq/l
Aminonucleoside nephrose; normal 6.48, renal disease group 3.60, significance *
  Serum total protein: 4.47 g/dL
Aminonucleoside nephrose; normal 6.6, renal disease group 196, significance *
  Urine albumin: 106 mg/day
Aminonucleoside nephrose; normal 6.7, renal disease group 6.5, significance (*)
  Urine pH: 6.2
Aminonucleoside nephrose; normal 9.4, renal disease group 8.5, significance (*)
  Urine amount: 6.9 mL/day
Aminonucleoside nephrose; normal 25.2, renal disease group 44.8, significance *
  Serum urea nitrogen: 23.8 mg/dL
Aminonucleoside nephrose; normal 54, renal disease group 441, significance *
  Urine protein: 294 mg/day
Aminonucleoside nephrose; normal 84.3, renal disease group 277, significance *
  Serum cholesterol: 149 mg/dL
Aminonucleoside nephrose; normal 134, renal disease group 135, non-significant
  Serum Na^+: 134 m Eq/l
Aminonucleoside nephrose; normal 160, renal disease group 54, significance *
  Urine Na: 109 m Eq/l
Aminonucleoside nephrose; normal 169, renal disease group 135, non-significant
  Serum glycose: 138 mg/dL
Aminonucleoside nephrose; normal 180, renal disease group 196, significance *
  Weight: 176 g
Aminonucleoside nephrose; normal 230, renal disease group 204, non-significant
  Urine K: 210 m Eq/l

Reference: US4122189A, “Medicine for renal diseases” (priority 1976, dated 1978)
